According to patent publication US20260256740A1, “PHARMACEUTICAL COMPOSITION COMPRISING CYCLOHEX-2-ENYLIDENE / 3,3-DIMETHYLINDOLINE COMPOUNDS; METHODS OF TREATING HUMAN DISEASES; AND METHODS OF INDUCING A CALCIUM SENSITIZING EFFECT IN A SUBJECT” (Curadel Surgical Innovations, Inc., priority 2022, published 2026):

System: plasma membrane of living cells
Assay: NIR cellular microscopy of living cells
Format: cell-based
Source text: Without being limited by theory, PanLN and PanLN-forte are believed unlikely to directly bind myofilaments.

| Structure (SMILES) | crossing of the plasma membrane of living cells |
| --- | --- |
| CC1(C)C(/C=C/C2=C(Oc3ccc(CCC(=O)O)cc3)C(=C/C=C3/N(CCC[N+](C)(C)C)c4ccccc4C3(C)C)/CCC2)=[N+](CCC[N+](C)(C)C)c2ccccc21 [PanLN, 2-((E)-2-((E)-2-(4-(2-carboxyethyl)phenoxy)-3-((E)-2-(3,3-dimethyl-1-(3-(trimethylammonio)propyl)indolin-2-ylidene)ethylidene)cyclohex-1-enyl)vinyl)-3,3-dimethyl-1-(3-(trimethylammonio)propyl)-3H-indolium] | does not appear to cross the plasma membrane |
| CC1(C)C(/C=C/C2=C(c3ccc(CCC(=O)O)cc3)C(=C/C=C3/N(CCC[N+](C)(C)C)c4ccccc4C3(C)C)/CCC2)=[N+](CCC[N+](C)(C)C)c2ccccc21 [PanLN-fort, 2-((E)-2-((E)-2-(4-(2-carboxyethyl)phenyl)-3-((E)-2-(3,3-dimethyl-1-(3-(trimethylammonio)propyl)indolin-2-ylidene)ethylidene)cyclohex-1-enyl)vinyl)-3,3-dimethyl-1-(3-(trimethylammonio)propyl)-3H-indolium] | does not appear to cross the plasma membrane |
